What all share (type): in vivo, mice
The target of data set [1] is T1, NK3R (Mus musculus, UniProt P47937).
T1 construct: from tissue; host or cells: whole living mice (in vivo behavioural tests)
T1 sequence (P47937 1-452): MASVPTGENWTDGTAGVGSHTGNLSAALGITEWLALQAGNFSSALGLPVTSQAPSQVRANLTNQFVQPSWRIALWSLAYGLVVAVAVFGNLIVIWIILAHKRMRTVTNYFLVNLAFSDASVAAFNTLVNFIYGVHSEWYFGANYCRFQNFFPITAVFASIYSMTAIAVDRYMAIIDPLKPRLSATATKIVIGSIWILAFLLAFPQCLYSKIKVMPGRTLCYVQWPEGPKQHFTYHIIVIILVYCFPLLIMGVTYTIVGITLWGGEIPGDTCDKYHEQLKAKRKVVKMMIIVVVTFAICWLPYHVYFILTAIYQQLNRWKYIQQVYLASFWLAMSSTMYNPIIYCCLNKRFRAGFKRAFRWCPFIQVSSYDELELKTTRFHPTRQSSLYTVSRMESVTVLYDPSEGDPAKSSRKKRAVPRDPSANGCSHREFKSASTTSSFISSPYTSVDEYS
Description: Cocaine-induced locomotion assay with i.p. injection of senktide. The note with it: i.p. injection of senktide vs saline; distance traveled in 30-minute post-treatment period. How it is done: (§1) FIGS. 12A-12B show systemic injection of a TacR3 agonist, senktide, reduced cocaine-conditioned place preference and cocaine-induced locomotion. […] The CPP scores were calculated by subtracting the time spent in pre-conditioning phase from the time spent in post-conditioning phase, *, […], unpaired t-test.
The basal level of locomotion as well as cocaine-induced change of locomotor activity were assessed in the open field arena the same as the OFT. For chemogenetics experiments, 20 minutes after administration of either saline or CNO, mice were individually placed in the center of the test chamber, triggering the infra-red tracking system to record locomotor activity, as measured by the number of beam breaks. For optogenetic experiments, the total duration of the behavioral test was 30 minutes, which was divided into […] 5×6-min epochs (with 3-minutes laser on. 3-minutes laser off, respectively). Different groups of mice were balanced across the 8 chambers to avoid potential environmental bias.
The Tac2 gene encodes the neuropeptide neurokinin B (NKB). NKB has high affinity for neurokinin 3 receptor (NK3R, encoded by the TacR3 gene). The NKB-NK3R (ligand-receptor) signal pathway is functional in both central and peripheral nervous systems and have been implicated in diverse physiological processes, such as reproduction, inflammation, and psychiatric disorders^55. […]

Data set [2] deals with T1, NK3R. Description: Cocaine-CPP with systemic injection of senktide. The settings on record: systemic injection of senktide vs saline; CPP score. How it is done:
as §1
A two-compartment CPP chamber was used with one compartment with grid rod style floor and the other with mesh style floor (Med Associates). Chamber size is 25×19×17 cm (L×D×H). Mice trajectories were tracked by infra-red photobeam detectors, and the travel distance and the duration the mice spent in the two compartments were recorded. The CPP protocol consists of three sessions that include pre-conditioning, conditioning, and post-conditioning.
The Tac2 gene encodes the neuropeptide neurokinin B (NKB). NKB has high affinity for neurokinin 3 receptor (NK3R, encoded by the TacR3 gene). The NKB-NK3R (ligand-receptor) signal pathway is functional in both central and peripheral nervous systems and have been implicated in diverse physiological processes, such as reproduction, inflammation, and psychiatric disorders^55. To evaluate the functional relevance of the NKB-NK3R pathway in addiction, an NK3R agonist, senktide, was systemically administered to mice, and then addiction-related behavioral tests were performed. […]

The next data set deals with Tac2 mRNA. Description: Cocaine-CPP after shRNA knock-down of Tac2 in NAc. The settings on record: AAV Tac2 shRNA vs control shRNA, bilateral NAc injection. How it is done: Numbers were calculated by summating Tac2^+ cells in serial 3 slides of the NAc region of individual mice (˜Bregma+1.2). […] Mice were subjected to 2-days conditioning, with each morning given saline injection followed by confined to saline-coupled chamber for 30 minutes, and in the afternoon, mice were given cocaine injection followed by confined to cocaine chamber for 30 minutes. Left: time spent in the cocaine-paired chambers pre- and post-conditioning, ****, p<0.0001, paired t-test. Right: the CPP scores were calculated by subtracting the time spent in pre-conditioning phase from the time spent in post-conditioning phase, ns, p=0.0975, unpaired t-test. […] FIGS. 10G-10I show dose-dependent response under cocaine-IVSA of Tac2 knockdown mice. The numbers of lever presses (FIG. 10G). Lever accuracy (FIG. 10H), and numbers of infusions (FIG. 10I) are shown. Data in FIGS. 10B-10I are presented as mean±SEM.
Using calcium recording and neuronal activity manipulation, a causal relationship has been established between Tac2 neuronal activity and cocaine-associated behaviors (CPP and IVSA). It was then explored how Tac2^+ neurons might execute their functions. […]
Small hairpin RNA (shRNA) for mouse Tac2 gene (NM_009312.2) were selected based on previous studies^50. […] The AAV viruses were injected into NAc regions and knock-down efficiency were evaluated by Tac2 RNA FISH.

Numbered stars: 1 amine (or outer) side, 2 acyl side, 3 side chain; on linkers, the order of the positions; unused ones are H or OH. Square brackets hold non-standard residues; d marks the D form. Peptide text beside a SMILES is read from it. NMeF = CN[C@@H](Cc1ccccc1)C(=O)O; Suc = O=C(CCC(=O)[*:2])[*:1]

With `CSCC[C@H](NC(=O)[C@H](CC(C)C)NC(=O)CNC(=O)[C@H](Cc1ccccc1)N(C)C(=O)[C@H](Cc1ccccc1)NC(=O)[C@H](CC(=O)O)NC(=O)CCC(=O)O)C(N)=O` [senktide, Suc-Asp-Phe-(Me-Phe)-Gly-Leu-Met] (Suc-DF[NMeF]GLM-NH2), on NK3R [1], the cocaine-induced locomotion entry was “reduced”. The cocaine-conditioned place preference result on NK3R [2] is given as “reduced”.

B1: Tac2-shRNA: AAV construct expressing small hairpin RNA for mouse Tac2 gene (SEQ ID NO: 3, 4) (nucleic acid, listed as Mus musculus)
sense: GATCCGCCGCCTCAACCCCATAGCAATTAGAAGCTTGTAATTGCTATGGGGTTGAGGCTTTTTTT
In the case of B1, the cocaine-induced place preference result with Tac2 mRNA is “neither affected”.
